Assay results taken from US9018176B2, “Inducers of hematopoiesis and fetal globin production for treatment of cytopenias and hemoglobin disorders” (priority 2010, dated 2015).

Tests used:
γ-globin gene promoter = assay: Dual luciferase reporter assay (μLCRβprRlucAγprFluc cassette) in GM979 cells; type: cell-based; settings: Resveratrol at 10 μM, MS-275 at 5 μM
Description: Cell-based screen for γ-globin inducing compounds in GM979 cells (Skarpidi, et al. Blood 2000; 96:321-326). Mini-gene construct integrated into GM979 cell genome. The readout is Firefly/Renilla luciferase ratio, and is designed to identify only strong inducers of the γ-globin promoter, and specificity for the γ- vs. the […]γ-globin gene. This second assay confirmed 12/15 candidates.
This assay is […], and consists of a dual-luciferase reporter construct containing the LCR and the […] luciferase and the Aγ-globin promoter linked to firefly luciferase (μLCRβprRlucAγprFluc cassette), stably-transfected into GM979 cells. The orientation of the promoters and μLCR allowed detection only of strong, specific inducers of the γ-globin gene promoter. This assay is also been predictive of in vivo HbF-inducing activity.
The γ-globin-specificity of hits was determined in a secondary assay employing a stably-transfected dual-luciferase reporter construct containing the LCR and the β-globin promoter linked to renilla luciferase and the Aγ-globin promoter linked to firefly luciferase (μLCRβprRlucAγprFluc cassette) (FIG. 2B).

γ-globin mRNA [1] = assay: γ-globin mRNA in cultured primary human erythroid progenitors (BFU-e), real-time PCR; type: cell-based
Experimental: Erythroid progenitors were cultured from cord blood CD34+ cells. […] Each compound was tested in three different cultures. […] On day 14, RNA was extracted from cultured erythroid cells, and relative quantification PCR was performed. Briefly, cDNA was generated from equal amounts of total RNA extracted using The PerfectPure RNA Purification Kit (5 Prime Inc Gaithersburg, Md.). Real-time PCR was performed using an ABI 7500 Real-Time PCR system (Applied Biosystems, Foster City, Calif.). Levels of globin mRNA were calculated by the ΔΔCt method. […] GAPDH levels were used for standardization. Western blotting Nuclear extract of K562 cells and 14-day-old BFU-e were analyzed by electrophoresis using 5-24% gradient SDS-polyacrylamide mini-gels (BIORAD Laboratories. Hercules Calif.). Proteins in the gels were transferred to Immobilon-P membranes. Blots were then incubated with BCL11A polyclonal (Novus Biologicals, Littleton Co) or mouse monoclonal (Santa Cruz Biotechnology, Santa Cruz Calif.) antibodies, after washing blots were incubated with anti-rabbit IgG-horseradish peroxidase secondary antibody (ECL, Little Chalfont Buckinghamshire UK). BCL11A bands were detected on the X-ray film using Western Lightning Reagents (Perking Elmer Inc, Waltham, Mass.).

γ-globin mRNA [2] = assay: γ-globin mRNA gene expression in K562 cells; type: cell-based
CB BFU-E cells = assay: CB BFU-E cell proliferation (cells/colony); settings: FIG. 8
Experimental: Fetal globin-inducing activity in human erythroid progenitors was assessed. Human erythroid progenitors were cultured from peripheral blood samples, exposed to the test compounds at varying concentrations and for varying durations and analyzed for globin chain mRNA ratios. Erythroid progenitors were cultured from cord blood CD34+ cells. Briefly, CD34+ cells in the human cord blood were separated using a Ficoll-paque density gradient. CD34+ cells were cultured in H4230 medium containing 2 mM L-glutamine, 1% Methylcellulose in Iscove's Medium, 30% Fetal Bovine Serum, 1% Bovine Serum Albumin and 10^-4 M β-mercaptoethanol. Methylcellulose H4230 medium was supplemented with EPO (0.5 U/ml) and IL-3 (20 ng/ml) to support BFU-e growth. Cells were cultured in […] mini-dishes and incubated in a humidified atmosphere containing 5% CO2, at 37° C. Different concentrations of the test compounds were added at the time the cultures were established. Each compound was tested in three different cultures. BFU-e colonies grown in mini-dishes were counted on day 14 and harvested for mRNA analysis.

histone deacetylases = assay: Histone deacetylase inhibition
γ-globin mRNA [3] = assay: γ-globin mRNA in cultured primary human erythroid progenitors (BFU-e), real-time PCR; type: cell-based; settings: Resveratrol 0.2 uM
[4] = Hemoglobin disorder progenitors

## Oc1ccc(C=Cc2cc(O)cc(O)c2)cc1 [Resveratrol, resveratrol]
γ-globin gene promoter; Ambroxol at 1 μM, Desloratadine at 1 μM, Benserazide at 0.03 μM (or a range of 30 nM-5 μM), NSC-95397 at 1 μM, versus sodium Butyrate at 2000 μM
  activity compared with sodium Butyrate: significantly more active
γ-globin gene promoter; Benserazide at 0.03 μM
  most active at inducing γ-globin mRNA expression: most active
γ-globin mRNA [1]; FIG. 4C, HFU-E (burst-forming units-erythroid) cells, Resveratrol 30 μM, desloratadine 50 μM, NSC 50 μM, Benserazine 5 μM
  % induction of γ-globin mRNA gene expression: most significant % increase
γ-globin mRNA [1]; cultured primary human erythroid progenitors, concentrations pharmacologically achievable in humans
  γ-globin mRNA induction: up to 3 fold
γ-globin mRNA [1]; primary erythroid progenitors in vitro
  concentrations that induce fetal globin (HbF) mRNA: 0.05 µM
γ-globin mRNA [2]; FIG. 5, K562 cells, tested Desloratadine 10 μM-100 μM, Resveratrol 5 μM-30 μM, NSC 1 μM-50 μM
  concentration giving the most γ-globin mRNA expression: 30 µM
γ-globin mRNA [2]; FIGS. 4A and 4B, K562 cells, Resveratrol 30 μM, desloratadine 50 μM, NSC 50 μM, Benserazine 5 μM
  % induction of γ-globin mRNA gene expression: most significant % increase
CB BFU-E cells
  number of blood cells per colony: increase the number of blood cells per colony
CB BFU-E cells; Desloratadine 1 μM-10 μM, Resveratrol 0.05 μM-5 μM, Benserazide 0.1 μM-10 μM
  cytotoxicity / inhibition of erythroid cell proliferation: non-cytotoxic
Histone deacetylases
  concentration that inhibits histone deacetylases: 0.05 µM
γ-globin mRNA [3]; Cord Blood progenitors
  fetal globin mRNA, Mean: 217 % of control
  responses (cultures with induced fetal globin mRNA): 5/5
γ-globin mRNA [3]; [4]
  fetal globin mRNA, Mean: 245 % of control
  responses (cultures with induced fetal globin mRNA): 1/2
γ-globin mRNA [3]; Normal progenitors
  fetal globin mRNA, Mean: 122 % of control
  responses (cultures with induced fetal globin mRNA): 1/2
